Measured values reported in a melting point compilation (Tetko et al.; mined from patent text by program, amines drawn as free bases though some values may be those of a salt).

melting point | SMILES
56 °C | CCN(CC)C(=O)c1cc(-c2ccccc2)c2occc2c1
189 °C | Cc1cc(Nc2ccnc(Nc3ccc(S(=O)(=O)N(CC4CCCO4)C4CCN(C)CC4)cc3)n2)ccc1F (stereo not given)
78 to 80 °C | O=C(O)CCCOc1ccc(CNC(=O)C2Cc3ccccc3N2S(=O)(=O)c2ccc(-c3cccc(C(F)(F)F)c3)cc2)cc1 (stereo not given)
189 to 191 °C | CCOC(CNC(=S)Nc1c(F)ccc2nc(C)ccc12)OCC
263 °C | CC(=O)Nc1ccc(OC(C)=O)c(C(=O)Nc2cccc3[nH]ccc23)c1
104 °C | CCOC(=O)c1sc(C)nc1O
128 °C | FC(F)(F)c1ccc(NC2CCNCC2)nc1
312 to 314 °C | O=C(O)COc1ccc(C=CC(=O)c2ccc(C(=O)O)cc2)cc1
132 to 133 °C | O=S1(=O)NCN(C2CC2)c2c1ccc(Cl)c2Cl
170 °C | O=C(O)C#Cc1ccc(-c2ccccc2)cc1
120 to 123 °C | Cc1noc(NS(=O)(=O)c2c(Cc3ccccc3)sc3ccccc23)c1Br
98 to 100 °C | O=C(O)C=C1CCCCC1Cc1ccccc1 (racemic)
186 °C | O=S1(=O)CCC(c2ccccc2)(c2ccccc2)[C@@H]2CN(Cc3ccccc3)C[C@@H]21 (racemic)
71 to 72 °C | CCC(=O)OC(C)c1ccc(O)cc1 (single isomer, unassigned; (+))
185 to 186 °C | O=C1Nc2ccccc2C1C(=O)c1ccoc1 (stereo not given)
89 to 90 °C | CCCCCCCCCCOc1ccc(O)c2ccccc12
163 to 164 °C | Cc1cc(O)c(SCc2ccc(Cl)cc2Cl)c(=O)o1
135 to 136 °C | CCCCC(=N)Nc1ccccc1N1CCOCC1
198 to 199 °C | CSc1cc2n(c(=O)n1)C(c1ccccc1)N=C2 (stereo not given)
154 to 156 °C | CCCCc1cnc(-c2ccc(N)cc2)nc1
136 °C | OC(CON=C1CCCc2sccc21)CN1CCCC1 (stereo not given)
74 to 76 °C | CN(C)Cc1ccc(CSCCNC(=C[N+](=O)[O-])NCCCCCCCCCCCCNC(=C[N+](=O)[O-])NCCSCc2ccc(CN(C)C)o2)o1
177 to 179 °C | Cc1ccc(S(=O)(=O)OCCCn2c3c(c4ccccc4c2=O)C(=O)c2ccccc2-3)cc1
94 to 96 °C | O=C(O)C1=CCCN1C(=O)CCS

melting point | SMILES
185 to 190 °C | CC(=Nc1ccc(C2=NNC(=O)CC2C)cc1)c1ccc(O)cc1O (stereo not given)
213 to 214 °C | COc1ccc2[nH]c(=O)c(-c3nnn(Cc4cccc(OCc5ccc6ccccc6n5)c4)n3)cc2c1
243 to 245 °C | CC(=O)Oc1c(C(C)C)cc(-c2c3ccccc3cc3sc(C)c(C)c23)cc1C(C)C
63 to 67 °C | CC(Cc1cccnc1)(NC(=O)OC1C2CC3CC(C2)CC1C3)C(=O)NC(CO)Cc1ccccc1 (stereo not given)
112 °C | Cc1cc(NC(=O)OC(C)(C)C)c(N)cc1-c1ccc(F)cc1
62 °C | Nc1ccc(Cl)cc1NCC1CCCCC1
195 °C | CCOC(=O)C1=C(C)Nc2nc(N3CCOCC3)nc(N3CCOCC3)c2C1c1c(F)c(F)c(F)c(F)c1F (stereo not given)
215 to 217 °C | CC(=O)OCC(=O)[C@@]1(O)CCc2c(O)c3c(c(O)c2C1)C(=O)c1cccc(O)c1C3=O
117 to 118 °C | CCOC(=O)CC(C(=O)c1ccc(OC)cc1)c1ccc(OC)c(F)c1 (stereo not given)
146 to 147 °C | CN(Cc1ccccc1)c1cc(-c2nc(=O)c3ccccc3s2)ccn1
67 to 69 °C | CCCCOCCOc1ccc(-c2ccc(N3CC(C)C(C)C3)c(C=C(C)C(=O)OCC)c2)cc1 (stereo not given)
81.8 to 82.6 °C | COc1cc(C=CC(=O)c2cccc(N(C)C)c2)cc(OC)c1
203 to 204 °C | CN1CCN(C(=O)c2cc(Oc3ccc4c(c3)CCN4C(=O)Nc3cccc(C(F)(F)F)c3)ncn2)CC1
174 to 175 °C | CC1(C)CC2(CC(C)(C)c3ccc(Oc4cccc([N+](=O)[O-])c4)cc32)c2cc(Oc3cccc([N+](=O)[O-])c3)ccc21
175 to 178 °C | COC(=O)Nc1nc2cc(SCC3(C)CC3(Cl)Cl)ccc2[nH]1 (stereo not given)
22 to 25 °C | COc1cccc2c1CCCC2N (stereo not given)
195 to 202 °C | O=C1NCC(CN2C(=O)C3(COc4cc5c(cc43)OCO5)c3ccccc32)O1 (stereo not given)
209 to 211 °C | CCCc1nc2c(N)nc3cc(Oc4ccc([N+](=O)[O-])cc4)ccc3c2n1CC(C)C
218 °C | Cc1cc(-c2ncn3c(C(F)(F)F)cc(-c4ccc(C(F)(F)F)c(C(F)(F)F)c4)nc23)ccn1
148 to 150 °C | O=C1N(Cc2ccc(Cl)o2)c2ccccc2C12COc1cc3c(cc12)OCO3 (stereo not given)
214 to 218 °C | CCCNC(=O)C(C)Cc1ccc2cccc(Cc3ccc(C(=O)NS(=O)(=O)c4ccccc4)cc3OC)c2c1 (stereo not given)
234 to 235 °C | CC1(Cn2c(=O)n(-c3ccccc3)c3ccccc32)Cn2cc([N+](=O)[O-])nc2O1 (stereo not given)
143 °C | OC(c1ccccc1)c1ccc2[nH]nnc2c1 (stereo not given)
202 to 204 °C | Oc1cc(OCc2ccccn2)ccc1/C=C/c1cc(/C=C/c2ccc3cc[nH]c3c2)n[nH]1

melting point | SMILES
243 to 244 °C | O=C(O)c1oc(=O)c2cc(Cl)c(Cl)cc2c1-c1ccccc1
126 to 127 °C | Cc1cccc(C)c1Sc1nc[nH]n1
143 to 144 °C | CCOc1cc2c(cc1O)C(C(Cl)(Cl)Cl)OC2=O (stereo not given)
70 to 75 °C | CCOC(=O)CSc1nc(Cl)cc(NCc2ccc(F)cc2)n1
141 to 143 °C | CCCCC(C)c1cc(O)c2c(c1)OC(C)(C)CC2C1=CCN(CCc2ccccc2)CC1 (stereo not given)
158 °C | COc1ccc2c(c1)C(=O)N(CCCN(C)CCN1C(=O)c3ccccc3C(C)(C)C1=O)C(=O)C2(C)C
204 to 205 °C | O=C(Nc1cccnc1)N1CCc2cc(Cl)ccc21
174 to 176 °C | CCOC(=O)C(=O)CC(=O)c1cn(Cc2ccc(Cl)cc2)c2ccccc2c1=O
34 to 36 °C | CCOC(=O)C(Cc1ccc(OCc2ccccc2)cc1)Oc1ccc(OC(F)(F)F)cc1 (stereo not given)
160 to 162 °C | Nc1ccc2c(c1)CCN(C(=O)C(F)(F)F)CC2
173 to 175 °C | COc1nc(N)nc2oc(C)cc12
151 to 152 °C | O=C1NC(=O)C(Cc2ccc(O)cc2)S1 (stereo not given)
235 °C | CSc1ccc2ccc(N3C(=O)c4ccccc4C3=O)nc2n1
141 to 142 °C | CCOC(=O)c1cc(C(=O)CBr)c(=O)[nH]c1C(=O)OCC
112 °C | CCC(CC)C1CC(=O)C(C(=O)NS(=O)(=O)c2ccc(C)cc2)C(=O)C1 (stereo not given)
291 °C | O=P(O)(O)COc1ccc2c(c1)[nH]c1ccccc12
233 to 236 °C | COc1cc2nc(N)nc(-c3ccc(C)c(Br)c3Br)c2cc1OC
136 °C | CCCc1c(OCCCOc2ccc(Br)cc2)ccc2c1OC(CCC(=O)O)(CCC(=O)O)CC2=O
84 to 87 °C | CCOc1ccc(-c2nc(C=O)cs2)cc1OCC
101 to 102 °C | COc1ccc(C(=O)N(C)C)c(-c2ccccc2)c1OC
113 to 115 °C | CCCn1c(C)c(C(C)=O)c(N)c1-c1ccccc1
148 to 149 °C | NS(=O)(=O)c1ccccc1CCC(F)(F)F
186 °C | CC1(C)CCC(C)(C)c2cc(C(O)C3CCCCC3C(=O)O)ccc21 (stereo not given)
198 to 202 °C | O=C(O)Cc1c(C(=O)O)c2cc(Oc3ccc(Cl)cc3)ccc2n1-c1ccc(OC(F)(F)F)cc1

melting point | SMILES
206 to 207 °C | O=S(=O)(Nc1cnc(-n2ccnc2)nc1NCc1ccc2c(c1)OCO2)c1ccc(Cl)cc1
255 to 256 °C | CCn1c(=O)c2c(nc(/C=C/c3cc4c(cc3Br)OCO4)n2C)n(CC)c1=O
220 °C | COc1ccc2ccc(NC(=O)c3cccs3)nc2n1
144 to 147 °C | COC(=O)C=C(c1ccc(C#N)cc1)n1ccnc1
62 to 72 °C | CC(=O)NC1Cc2ccc(CCN3CCN(c4nsc5ccccc45)CC3)cc2C1(C)C (stereo not given)
119 to 124 °C | CCCc1c(OCCCCCOc2ccc(OCCCC(=O)O)cc2CCC(=O)O)ccc2c1OCCC2=O
196 °C | COc1ccc(CN2CC(=O)Nc3ccc(OC)cc3C2=O)c(OC)c1
336 to 338 °C | O=c1[nH]c2ncc(-c3ccc(-c4nc[nH]n4)cc3)nc2n1CC1CCCCC1
151 to 155 °C | Cc1c(CCNC(=O)OC(C)(C)C)c2cc(S(=O)(=O)c3ccccc3)ccc2n1C
153 to 155 °C | Nc1cc(C(=O)O)c(Cl)cc1F
56 to 58 °C | C=C1CCCc2ccc(OCc3ccc4ccccc4n3)cc21
118 to 120 °C | CC(=O)Nc1ccc(C(=O)N2CC2C#N)c(OC(C)=O)c1 (stereo not given)
162 to 164 °C | CCC1(CC)c2cc(Br)ccc2-c2ccc(I)cc21
40 to 40.5 °C | CCOCC1C(C(=O)O)C1(C)C (stereo not given)
104 to 105 °C | O=C(OCc1ccccc1)C1CCc2[nH]c3ccccc3c2C1 (stereo not given)
228 °C | NC(=O)c1cc2n(c1)CCc1ccccc1C2=O
260 to 262 °C | CCOC(=O)c1c(-c2ccc(N)cc2)c(C#N)c(=O)n2ccccc12
102 to 106 °C | COc1ccc(C2CCN(c3c(C)c(C)c4c(c3C)[C@@H](c3ccc(C)cc3)C(C)(C)O4)CC2)cc1OC
> 300 °C | NC(=O)C1CCN(C(=O)c2ccc(NCc3cnc4nc(N)nc(N)c4n3)cc2)CC1
208 to 209 °C | CC(C)(C)OC(=O)N1CCN(c2ccc(OCC3(C)CCn4cc([N+](=O)[O-])nc4O3)cc2)CC1 (stereo not given)
180 to 186 °C | Cc1ccc(F)cc1C(=O)Nc1ccc(C(=O)N2Cc3ccccc3Oc3ccccc32)cn1

SMILES | melting point
CCC(Oc1c(C)c(F)cc(F)c1F)C1=NCCN1 (stereo not given) | 99 to 101 °C
O=C(O)C(Cl)C(=O)CCl (stereo not given) | 53 to 54 °C
CC1(C)CCCC(N=[N+]=[N-])C(=O)N1 (stereo not given) | 98 to 100 °C
C[C@@H]1C[C@](C)(O)[C@H](C)N1c1ccc(C#N)c(F)c1 | 125 to 128 °C
CN(C)C1(c2ccccc2)CCC(=CC(=O)NCCCc2ccccc2)CC1 (stereo not given) | 140 to 142 °C
CCCCOc1nccnc1C1(O)CN2CCC1CC2 (stereo not given) | 107 to 108 °C
COC1=Nc2ccc(Cl)cc2N(c2ccccc2)C(=O)C1 | 136 to 138 °C
